pIC50: −log10 of the molar value.
Experiments:
PMCT = biological target: T1, PMCT (Homo sapiens, UniProt Q86YT5); experiment: PMCT inhibition, citrate transport assay of whole HEK293T cells; assay type: cell-based
T1 construct: expressed in transfected cells; host or cells: HEK293T cells transfected with pcDNA3.1(+)-SLC13A5 using PEI

[1] = system: 60 human cancer cell lines; experiment: NCI 60 One-Dose Screen; assay type: cell-based
Source text: The one-dose assay reported the growth relative to the no-drug control, and relative to the time zero number of cells. This allowed for the detection of both growth inhibition (values between 0 and 100) and lethality (values less than 0). For example, a value of 100 means no growth inhibition. A value of 40 would mean 60% growth inhibition. A value of 0 means no net growth over the course of the experiment. A value of −40 would mean 40% lethality. A value of −100 means all cells are dead.

SR = experiment: NCI 60 five-dose screening, SR; conditions: Homo sapiens, 48 h
Description: (§1) The National Cancer Institute's Developmental Therapeutic preclinical 60 human cancer cell lines were used for an in vitro screen. […] The one-dose and five-dose experiments were conducted according to standard NCI protocols.
The human tumor cell lines of the cancer screening panel are grown in RPMI 1640 medium containing 5% fetal bovine serum and 2 mM L-glutamine. For a typical screening experiment, cells are inoculated into 96 well microtiter plates in 100 μL at plating densities ranging from 5,000 to 40,000 cells/well depending on the doubling time of individual cell lines. […]
(§2) Following drug addition, the plates are incubated for an additional 48 h at 37° C., 5% CO2, 95% air, and 100% relative humidity. […] Bound stain is subsequently solubilized with 10 mM trizma base, and the absorbance is read on an automated plate reader at a wavelength of 515 nm. […] Using the seven absorbance measurements [time zero, (Tz), control growth, (C), and test growth in the presence of drug at the five concentration levels (Ti)], the percentage growth is calculated at each of the drug concentrations levels. Percentage growth inhibition is calculated as: [(Ti−Tz)/(C−Tz)]×100 for concentrations for which Ti>/=Tz [(Ti−Tz)/Tz]×100 for concentrations for which Ti<Tz.
Three dose response parameters are calculated for each experimental agent. […]

EKVX = experiment: NCI 60 five-dose screening, EKVX; conditions: 48 h
Description: as §1
(§3) The human tumor cell lines of the cancer screening panel are grown in RPMI 1640 medium containing 5% fetal bovine serum and 2 mM L-glutamine. For a typical screening experiment, cells are inoculated into 96 well microtiter plates in 100 μL at plating densities ranging from 5,000 to 40,000 cells/well depending on the doubling time of individual cell lines. After cell inoculation, the microtiter plates are incubated at 37° C., 5% CO2, 95% air and 100% relative humidity for 24 h prior to addition of experimental drugs.
(§4) After 24 h, two plates of each cell line are fixed in situ with TCA, to represent a measurement of the cell population for each cell line at the time of drug addition (Tz). […]
as §2
(§5) Three dose response parameters are calculated for each experimental agent. […] The drug concentration resulting in total growth inhibition (TGI) is calculated from Ti=Tz. […] Values are calculated for each of these three parameters if the level of activity is reached; however, if the effect is not reached or is exceeded, the value for that parameter is expressed as greater or less than the maximum or minimum concentration tested.

KM12 = experiment: NCI 60 five-dose screening, KM12
Description: as §1, §3, §4, §2, §5

SF-295 = experiment: NCI 60 five-dose screening, SF-295
Description: as §1, §3, §4, §2, §5

UACC-257 = experiment: NCI 60 five-dose screening, UACC-257
Description: as §1, §3, §4, §2, §5

SK-MEL-28 = experiment: NCI 60 five-dose screening, SK-MEL-28
Description: as §1, §3, §4, §2, §5

T1 sequence (Q86YT5 whole entry): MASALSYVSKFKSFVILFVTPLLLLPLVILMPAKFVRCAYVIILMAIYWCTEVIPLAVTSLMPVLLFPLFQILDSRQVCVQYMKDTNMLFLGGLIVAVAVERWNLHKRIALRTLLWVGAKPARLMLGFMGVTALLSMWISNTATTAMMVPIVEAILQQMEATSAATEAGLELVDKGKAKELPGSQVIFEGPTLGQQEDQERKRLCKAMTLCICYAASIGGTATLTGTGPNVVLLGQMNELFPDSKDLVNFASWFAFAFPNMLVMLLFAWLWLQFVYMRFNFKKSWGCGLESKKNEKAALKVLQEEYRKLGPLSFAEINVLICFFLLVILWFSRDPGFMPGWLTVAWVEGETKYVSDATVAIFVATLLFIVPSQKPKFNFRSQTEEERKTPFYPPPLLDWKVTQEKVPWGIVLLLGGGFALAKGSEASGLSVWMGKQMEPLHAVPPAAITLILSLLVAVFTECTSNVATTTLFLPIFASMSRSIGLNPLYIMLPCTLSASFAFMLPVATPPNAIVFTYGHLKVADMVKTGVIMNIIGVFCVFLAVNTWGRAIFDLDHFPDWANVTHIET

In the case of `COc1ccc(SC2c3cc(OC)c(OC)cc3Oc3nc(N)c(C#N)c(N)c32)cc1` (stereo not shown) [Compound 1, 2,4-diamino-7,8-dimethoxy-5-((4-methoxyphenyl)thio)-5H-chromeno[2,3-b]pyridine-3-carbonitrile], the pIC50 (PMCT; HEK293T cells) was 5.01, the “dose-dependence of PMCT inhibition” value (PMCT; HEK293T cells, even at moderate concentrations (FIG. 1)) was “dose-dependent inhibition” and the inhibition at 5 µM (PMCT; HEK-293T, read-out: PMCT Inhibition, Inhibitor Concentration 5 μM, HEK293T cells) was 50.1%. The inhibition at 20 µM (PMCT; HEK-293T, read-out: PMCT Inhibition, Inhibitor Concentration 20 μM, HEK293T cells) was 75.6%, the inhibition at 40 µM (PMCT; HEK-293T, read-out: PMCT Inhibition, Inhibitor Concentration 40 μM, HEK293T cells) was 50.2% and the inhibition at 200 µM (PMCT; HEK-293T, read-out: PMCT Inhibition, Inhibitor Concentration 200 μM, HEK293T cells) was 32.1%. For the same compound, the inhibition at 1000 µM (PMCT; HEK-293T, read-out: PMCT Inhibition, Inhibitor Concentration 1000 μM, HEK293T cells) was 62.8%, the “growth inhibition in the One-Dose Screen” value [1] was “significant growth inhibition” and the GI50 (SR) was 0.27 µM. For the same compound, the CC50 (SR; read-out: LC50) was greater than 100 µM, the TGI (EKVX; EKVX (Non-small cell Lung), five-dose) was 3.34 µM and the GI50 (EKVX; Homo sapiens, EKVX) was 1.74 µM. It also gave a CC50 (EKVX; Homo sapiens, EKVX, read-out: LC50) of 6.42 µM, a GI50 (KM12; Homo sapiens, KM12, 48 h) of 1.53 µM and a CC50 (KM12; Homo sapiens, KM12, 48 h, read-out: LC50) of 6.06 µM. It also gave a TGI (KM12; KM12 (Colon Cancer), five-dose, 48 h) of 3.05 µM, a GI50 (SF-295; Homo sapiens, SF-295, 48 h) of 1.6 µM and a CC50 (SF-295; Homo sapiens, SF-295, 48 h, read-out: LC50) of 5.48 µM. The TGI (SF-295; SF-295 (CNS Cancer), five-dose, 48 h) was 2.96 µM, the GI50 (UACC-257; Homo sapiens, UACC-257, 48 h) was 1.87 µM and the CC50 (UACC-257; Homo sapiens, UACC-257, 48 h, read-out: LC50) was 5.9 µM. For the same compound, the TGI (UACC-257; UACC-257 (Melanoma), five-dose, 48 h) was 3.32 µM, the GI50 (SK-MEL-28; Homo sapiens, SK-MEL-28, 48 h) was 1.47 µM and the CC50 (SK-MEL-28; Homo sapiens, SK-MEL-28, 48 h, read-out: LC50) was 5.78 µM. It also gave a TGI (SK-MEL-28; SK-MEL-28 (Melanoma), five-dose, 48 h) of 2.91 µM.

— patent US11814392B2, “Chromenopyridine-based compounds and methods of making and use thereof” (Rosalind Franklin University of Medicine and Science, priority 2020, dated 2023)
